{
  "source": "paper PMC10487437",
  "about": "(International Journal of Molecular Sciences, 2023)",
  "key": {"20S brain proteasome": {"test_system": "T1, 20S brain proteasome", "T1 construct": "from tissue; host or cells: mouse brain", "test": "Inhibition of 20S brain proteasome hydrolysis of oligoglutamine-containing FRET substrates", "type": "biochemical, mouse", "conditions": "[20S] = 50 nM; for IC50: 20 mM Tris-HCl pH 7.5, 1 mM DTT, 1 mM EDTA", "description": "(§1) Figure 7 The dependence of 20S proteasome activity on marizomib concentration during hydrolysis of peptide fluorogenic substrates. (a) hydrolysis of model oligoglutamine substrates, Dabcyl-KQ5-PPDE-EDANS (Q5) or Dabcyl-KQ10-PPDE-EDANS (Q10). (b) hydrolysis of standard coumarine-modified peptide substrates. The experimental data are approximated by the function y = A1 + (A2 − A1)/(1 + 10^(LOGx0–x)p), where A1 and A2 are the minimum and maximum values of log10(Ci), respectively, LOGx0 is the logarithm of the EC50 (the concentration giving a response half-way between the upper and lower asymptotes), and p is the Hill coefficient."}, "[1]": {"target": "T2, 20S brain proteasome, trypsin-like activity (Mus musculus, UniProt P70195+Q9R1P1)", "T2 construct": "from tissue; host or cells: mouse brain", "test": "Inhibition of 20S brain proteasome hydrolysis of Ac-RLR-AMC (trypsin-like activity)", "type": "biochemical", "conditions": "[20S] = 50 nM; for IC50: 20 mM Tris-HCl pH 7.5, 1 mM DTT, 1 mM EDTA, [Ac-RLR-AMC] = 50 µM", "description": "as §1"}, "[2]": {"target": "T3, 20S brain proteasome, chymotrypsin-like activity (Mus musculus, UniProt O09061+O55234)", "T3 construct": "from tissue; host or cells: mouse brain", "test": "Inhibition of 20S brain proteasome hydrolysis of Suc-LLVY-AMC (chymotrypsin-like activity)", "type": "biochemical", "conditions": "20 mM Tris-HCl pH 7.5, 1 mM DTT, 1 mM EDTA; [20S] = 50 nM; [Suc-LLVY-AMC] = 50 µM", "description": "as §1"}, "[3]": {"target": "T4, 20S brain proteasome, caspase-like activity (Mus musculus, UniProt P70195+Q60692)", "T4 construct": "from tissue; host or cells: mouse brain", "test": "Inhibition of 20S brain proteasome hydrolysis of Z-LLE-AMC (caspase-like activity)", "type": "biochemical", "conditions": "[20S] = 50 nM; for IC50: 20 mM Tris-HCl pH 7.5, 1 mM DTT, 1 mM EDTA, [Z-LLE-AMC] = 50 µM", "description": "as §1"}, "[4]": {"test_system": "T5, 20S proteasome from murine brain", "T5 construct": "from tissue; host or cells: mouse brain", "test": "Specific peptidase activity of 20S proteasome with additives (Table S1)", "type": "biochemical, mouse", "conditions": "20S plus additive: 0.5 µM Bortezomib, 0.1 µM MG132, 0.02% SDS or 11S (1:2, mole:mole); 20S alone 2.37 ± 0.13; means ± SEM of three independent experiments run in duplicate", "description": "Characterization of puriﬁed proteasomes\nteasomes. […] To conﬁrm that\ncathepsin B [48] (Table S1).\nreaction mixture for both 20S and 26S.\nTable S1. Peptidase activity of the samples of 20S and 26S proteasome from murine brain.\nThe molar ratio between the proteasome"}, "26S+11S": {"test_system": "26S+11S", "test": "26S proteasome with 11S regulator, both isolated from mouse brains, in Tris-HCl buffer pH = 7.5 with 5 mM ATP-MgCl2", "conditions": "37 °C, up to 72 h"}, "20S proteasome": {"test_system": "20S proteasome", "test": "20S proteasome isolated from mouse brains, in 50 mM Tris-HCl, 1 mM EDTA, 1 mM DTT, 10% glycerol, pH = 7.5", "conditions": "37 °C, up to 72 h"}, "26S proteasome": {"test_system": "26S proteasome", "test": "26S proteasome isolated from mouse brains, in Tris-HCl buffer pH = 7.5 with 5 mM ATP-MgCl2", "conditions": "37 °C, up to 72 h"}, "20S+11S": {"test_system": "20S+11S", "test": "20S proteasome with 11S regulator, both isolated from mouse brains, in Tris-HCl buffer pH = 7.5", "conditions": "37 °C, up to 72 h"}, "[5]": {"conditions": "fit of dose-response curve (Figure 7)"}, "[6]": {"conditions": "fit of dose-response curve (Figure 7), substrate 50 µM"}},
  "note": "“Also recorded” adds a separate entry of the source. Where two headings read alike, the source gives them in different places. Square brackets hold non-standard residues; d marks the D form. Peptide text beside a SMILES is read from it. * marks the point of attachment. Nle = CCCC[C@H](N)C(=O)O; Cbz = O=C(OCc1ccccc1)*",
  "data": [
    {"compound": "C[C@@]12OC(=O)[C@]1([C@@H](O)[C@@H]1C=CCCC1)NC(=O)[C@@H]2CCCl", "note": "[Marizomib]", "values": [
      {"measurement": "Hill coefficient, inhibition of Dabcyl-KQ5 PPD-EDANS hydrolysis", "setting": "20S brain proteasome; [5]", "result": "(−0.69)"},
      {"measurement": "Hill coefficient, inhibition of Dabcyl-KQ10 PPD-EDANS hydrolysis", "setting": "20S brain proteasome; [5]", "result": "(−0.39)"},
      {"measurement": "IC50", "setting": "20S brain proteasome; substrate Dabcyl-KQ5 PPD-EDANS, read-out: IC50 of Dabcyl-KQ5 PPD-EDANS hydrolysis by 20S brain proteasome", "result": "323 ± 15", "unit": "nM"},
      {"measurement": "IC50", "setting": "20S brain proteasome; substrate Dabcyl-KQ10 PPD-EDANS, read-out: IC50 of Dabcyl-KQ10 PPD-EDANS hydrolysis by 20S brain proteasome", "result": "480 ± 20", "unit": "nM"},
      {"measurement": "IC50", "setting": "[1]", "result": "111 ± 8", "unit": "nM"},
      {"measurement": "Hill coefficient, inhibition of Ac-RLR-AMC hydrolysis", "setting": "[1]; [6]", "result": "(−1.51)"},
      {"measurement": "IC50", "setting": "[2]", "result": "9.3 ± 1.5", "unit": "nM"},
      {"measurement": "IC50", "setting": "[3]", "result": "610 ± 40", "unit": "nM"},
      {"measurement": "Hill coefficient, inhibition of Z-LLE-AMC hydrolysis", "setting": "[3]; [6]", "result": "(−1.1)"}
    ]},
    {"compound": "CC(C)C[C@@H](C=O)NC(=O)[C@H](CC(C)C)NC(=O)[C@H](CC(C)C)NC(=O)OCc1ccccc1", "note": "[Z-LLL-CHO (MG132)] (Cbz-Leu-Leu-Leu-aldehyde)", "values": [
      {"measurement": "Specific peptidase activity using Suc-LLVY-AMC", "setting": "[4]", "result": "0.093 ± 0.003", "unit": "nM/min/µg"},
      {"measurement": "IC50", "setting": "20S brain proteasome; substrate Dabcyl-KQ5 PPD-EDANS, n.d. = not detected, read-out: IC50 of Dabcyl-KQ5 PPD-EDANS hydrolysis by 20S brain proteasome", "result": "50000 ± 6000", "unit": "nM"},
      {"measurement": "IC50", "setting": "20S brain proteasome; substrate Dabcyl-KQ10 PPD-EDANS, n.d. = not detected, read-out: IC50 of Dabcyl-KQ10 PPD-EDANS hydrolysis by 20S brain proteasome", "result": "72000 ± 8000", "unit": "nM"},
      {"measurement": "IC50", "setting": "[1]", "result": "2800 ± 300", "unit": "nM"},
      {"measurement": "IC50", "setting": "[2]", "result": "12 ± 3", "unit": "nM"},
      {"measurement": "IC50", "setting": "[3]", "result": "155 ± 5", "unit": "nM"}
    ]},
    {"compound": "CCCC[C@H](NC(=O)[C@@H]1CCCN1C(=O)OCc1ccccc1)C(=O)N[C@H](C=O)CC(=O)O", "note": "[Z-P-nLeu-D-CHO] (Cbz-Pro-[Nle]-Asp-aldehyde)", "values": [
      {"measurement": "IC50", "setting": "[1]", "result": "> 150000", "unit": "nM"},
      {"measurement": "IC50", "setting": "[2]", "result": "100000 ± 10000", "unit": "nM"},
      {"measurement": "IC50", "setting": "[3]", "result": "5100 ± 300", "unit": "nM"}
    ]},
    {"compound": "Dabcyl-KQ5GD-EDANS", "values": [
      {"measurement": "cleaved bond", "setting": "26S+11S", "result": "Q2-Q3, major; also recorded: Q4-Q5, major"},
      {"measurement": "cleaved bond", "setting": "20S proteasome", "result": "Q2-Q3, major; also recorded: Q4-Q5, major"},
      {"measurement": "cleaved bond", "setting": "26S proteasome", "result": "Q2-Q3, major; also recorded: Q4-Q5, major"},
      {"measurement": "cleaved bond", "setting": "20S+11S", "result": "Q2-Q3, major; also recorded: Q4-Q5, major"}
    ]},
    {"compound": "Dabcyl-KQ10PPD-EDANS", "values": [
      {"measurement": "cleaved bond", "setting": "26S+11S", "result": "Q2-Q3, major; also recorded: Q3-Q4, major"},
      {"measurement": "cleaved bond", "setting": "20S proteasome", "result": "Q3-Q4, major, 2 h; also recorded: Q2-Q3, major, 2 h"},
      {"measurement": "cleaved bond", "setting": "26S proteasome", "result": "Q2-Q3, major; also recorded: Q3-Q4, major"},
      {"measurement": "cleaved bond", "setting": "20S+11S", "result": "Q2-Q3, major; also recorded: Q3-Q4, major"}
    ]}
  ]
}
